Measured values published in patent publication US20250304596A1, “PYRAZINE DERIVATIVES AND USES THEREOF” (FOGHORN THERAPEUTICS INC., priority 2022, published 2025).

Assays:
[1] = target: T1, HiBit-BRG1 fusion protein (Homo sapiens, UniProt P51532); experiment: HiBiT-BRG1 cell-based degradation assay (Nano-Glo HiBiT Lytic Detection, 24 h); conditions: stable HeLa cell line expressing HiBit-BRG1 and LgBit; for Dmax: read-out: BRG1 HiBit Degradation Maximum (%); for DC50: read-out: BRMG1 HiBit Degradation IC50
T1 construct: expressed in transfected cells
T1 sequence (P51532 whole entry, the tested form may be a part): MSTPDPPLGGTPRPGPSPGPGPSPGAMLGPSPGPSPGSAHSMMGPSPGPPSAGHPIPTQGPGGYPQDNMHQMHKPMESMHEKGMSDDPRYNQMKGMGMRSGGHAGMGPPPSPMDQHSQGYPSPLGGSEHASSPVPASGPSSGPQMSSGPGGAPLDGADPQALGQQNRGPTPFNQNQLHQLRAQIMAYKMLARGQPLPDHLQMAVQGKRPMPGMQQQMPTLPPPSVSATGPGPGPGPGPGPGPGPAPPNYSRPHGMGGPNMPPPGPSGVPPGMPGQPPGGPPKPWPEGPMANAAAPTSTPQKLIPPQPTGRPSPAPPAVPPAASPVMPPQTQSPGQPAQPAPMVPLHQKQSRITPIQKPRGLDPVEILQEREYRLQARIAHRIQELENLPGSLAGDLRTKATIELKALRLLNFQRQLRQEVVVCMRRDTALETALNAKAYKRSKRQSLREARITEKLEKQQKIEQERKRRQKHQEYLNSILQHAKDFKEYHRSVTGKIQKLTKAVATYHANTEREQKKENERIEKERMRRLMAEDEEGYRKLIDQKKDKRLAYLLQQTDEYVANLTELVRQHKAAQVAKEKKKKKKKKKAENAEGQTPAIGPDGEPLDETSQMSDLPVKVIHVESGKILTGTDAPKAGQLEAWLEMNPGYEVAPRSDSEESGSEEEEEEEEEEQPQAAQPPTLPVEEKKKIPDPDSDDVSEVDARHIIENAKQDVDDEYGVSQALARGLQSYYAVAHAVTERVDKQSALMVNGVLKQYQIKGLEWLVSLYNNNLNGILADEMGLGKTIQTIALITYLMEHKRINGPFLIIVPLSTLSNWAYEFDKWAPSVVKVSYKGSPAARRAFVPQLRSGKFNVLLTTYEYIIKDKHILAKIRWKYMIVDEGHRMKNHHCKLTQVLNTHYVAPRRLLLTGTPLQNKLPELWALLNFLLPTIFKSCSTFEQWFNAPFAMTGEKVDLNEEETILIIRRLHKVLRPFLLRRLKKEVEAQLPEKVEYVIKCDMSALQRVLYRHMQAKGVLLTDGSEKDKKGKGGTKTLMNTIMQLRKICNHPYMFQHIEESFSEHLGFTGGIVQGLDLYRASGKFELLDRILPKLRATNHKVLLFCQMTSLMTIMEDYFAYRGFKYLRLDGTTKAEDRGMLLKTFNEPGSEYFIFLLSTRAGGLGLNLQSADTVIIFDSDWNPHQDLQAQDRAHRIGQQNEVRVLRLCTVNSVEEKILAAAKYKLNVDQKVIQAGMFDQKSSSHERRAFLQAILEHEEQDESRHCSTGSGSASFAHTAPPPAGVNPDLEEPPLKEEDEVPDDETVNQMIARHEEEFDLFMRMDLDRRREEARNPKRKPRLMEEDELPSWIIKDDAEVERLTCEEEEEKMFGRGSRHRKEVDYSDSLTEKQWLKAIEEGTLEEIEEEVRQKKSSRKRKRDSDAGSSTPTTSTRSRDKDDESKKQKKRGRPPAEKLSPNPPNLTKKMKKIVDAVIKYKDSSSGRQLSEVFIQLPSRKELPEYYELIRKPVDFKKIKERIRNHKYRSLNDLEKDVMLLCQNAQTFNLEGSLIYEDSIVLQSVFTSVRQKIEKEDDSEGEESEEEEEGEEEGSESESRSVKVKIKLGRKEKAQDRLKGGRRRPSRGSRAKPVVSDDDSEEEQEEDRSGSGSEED
Procedure, shortened: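 HeLa cells stably expressing HiBit-BRG1 and LgBit, treated 24 h with 3-fold dilutions (10 points, duplicate, 30 μM final top dose). Luminescence read after Nano-Glo HiBiT lytic reagent; % degradation scaled between DMSO (high) and 2 μM reference BRM/BRG1 degrader (low control).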

HiBit-BRM fusion protein = target: T2, HiBit-BRM fusion protein (Homo sapiens, UniProt P51531); experiment: HiBiT-BRM cell-based degradation assay (Nano-Glo HiBiT Lytic Detection, 24 h); conditions: stable HeLa cell line expressing HiBiT-BRM; for DC50: read-out: BRM HiBit Degradation IC50
T2 construct: expressed in transfected cells
T2 sequence (P51531 whole entry, the tested form may be a part): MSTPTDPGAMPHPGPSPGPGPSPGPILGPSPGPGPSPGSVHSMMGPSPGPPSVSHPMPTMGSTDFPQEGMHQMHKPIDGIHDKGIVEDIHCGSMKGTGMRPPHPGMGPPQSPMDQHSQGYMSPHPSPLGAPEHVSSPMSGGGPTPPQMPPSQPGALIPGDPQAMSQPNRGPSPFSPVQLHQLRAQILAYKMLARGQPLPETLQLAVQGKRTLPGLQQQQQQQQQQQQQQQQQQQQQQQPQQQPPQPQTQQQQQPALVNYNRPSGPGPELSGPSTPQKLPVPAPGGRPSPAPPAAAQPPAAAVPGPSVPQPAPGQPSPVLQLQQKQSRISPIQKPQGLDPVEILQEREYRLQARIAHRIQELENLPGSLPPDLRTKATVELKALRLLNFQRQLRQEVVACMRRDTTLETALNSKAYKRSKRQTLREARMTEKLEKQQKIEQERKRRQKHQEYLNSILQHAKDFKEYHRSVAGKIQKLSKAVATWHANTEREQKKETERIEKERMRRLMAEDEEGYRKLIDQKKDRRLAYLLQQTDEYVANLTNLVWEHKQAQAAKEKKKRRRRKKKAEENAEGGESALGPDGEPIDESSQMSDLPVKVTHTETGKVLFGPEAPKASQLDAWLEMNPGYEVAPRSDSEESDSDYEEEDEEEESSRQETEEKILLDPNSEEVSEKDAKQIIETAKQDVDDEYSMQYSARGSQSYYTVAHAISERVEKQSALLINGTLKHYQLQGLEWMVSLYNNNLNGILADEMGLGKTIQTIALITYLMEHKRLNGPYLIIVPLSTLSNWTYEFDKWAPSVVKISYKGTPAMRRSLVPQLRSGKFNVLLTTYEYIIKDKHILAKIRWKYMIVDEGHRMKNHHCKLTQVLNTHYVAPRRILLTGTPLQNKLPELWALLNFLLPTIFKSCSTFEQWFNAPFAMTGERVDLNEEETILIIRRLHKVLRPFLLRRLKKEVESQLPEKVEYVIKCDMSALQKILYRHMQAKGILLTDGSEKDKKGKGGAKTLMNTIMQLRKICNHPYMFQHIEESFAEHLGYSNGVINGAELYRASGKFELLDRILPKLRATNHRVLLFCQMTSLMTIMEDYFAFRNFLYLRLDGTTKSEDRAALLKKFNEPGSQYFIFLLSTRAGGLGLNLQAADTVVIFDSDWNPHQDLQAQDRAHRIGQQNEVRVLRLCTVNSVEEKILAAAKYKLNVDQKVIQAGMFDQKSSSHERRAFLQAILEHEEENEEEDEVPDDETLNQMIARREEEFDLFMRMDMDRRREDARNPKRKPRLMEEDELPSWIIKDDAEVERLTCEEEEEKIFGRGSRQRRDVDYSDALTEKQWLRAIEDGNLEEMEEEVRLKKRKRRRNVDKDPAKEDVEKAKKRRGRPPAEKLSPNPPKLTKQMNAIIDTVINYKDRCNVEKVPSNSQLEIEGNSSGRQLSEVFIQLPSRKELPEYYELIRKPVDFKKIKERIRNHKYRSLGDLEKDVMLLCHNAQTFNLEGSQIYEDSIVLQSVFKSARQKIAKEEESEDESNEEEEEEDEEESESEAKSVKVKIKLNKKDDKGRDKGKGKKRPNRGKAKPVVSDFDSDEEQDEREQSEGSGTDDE
Procedure, shortened: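 A stable HeLa line expressing HiBiT-BRM was treated for 24 h with compound in a 10-point, 3-fold series (30 μM final top dose). Remaining HiBiT-BRM was read by lytic LgBiT complementation luminescence. % degradation was normalised to DMSO (high control) and 2 μM reference BRM/BRG1 degrader (low control).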

Row | Dmax [1] [%] | DC50 [1] [nM] | DC50 (HiBit-BRM fusion protein) [nM] | Structure (SMILES) | BRM HiBit Degradation Maximum (%) (HiBit-BRM fusion protein)
1 | < 50 | > 1000 | < 10 | Cc1cc(-c2cc([C@H](C(=O)N3C[C@H](O)C[C@H]3C(=O)N[C@@H](C)c3ccc(-c4scnc4C)cc3)C(C)C)on2)cnc1N1CCC(c2sc3nnc(-c4ccccc4O)cc3c2C)CC1 [Compound 43, (2S,4R)-4-hydroxy-1-((R)-2-(3-(6-(4-(3-(2-hydroxyphenyl)-5-methylthieno[2,3-c]pyridazin-6-yl)piperidin-1-yl)-5-methylpyridin-3-yl)isoxazol-5-yl)-3-methylbutanoyl)-N-((S)-1-(4-(4-methylthiazol-5-yl)phenyl)ethyl)pyrrolidine-2-carboxamide] | A (“A” indicates maximum degradation ≥75%)
2 | > 75 | > 10 | < 10 | Cc1nc(N2CCC(c3sc4nnc(-c5ccccc5O)cc4c3C)CC2)ccc1-c1noc([C@H](C(=O)N2C[C@H](O)C[C@H]2C(=O)N[C@@H](C)c2ccc(-c3scnc3C)cc2)C(C)C)c1C [Compound 92, (2S,4R)-4-hydroxy-1-((R)-2-(3-(6-(4-(3-(2-hydroxyphenyl)-5-methylthieno[2,3-c]pyridazin-6-yl)piperidin-1-yl)-2-methylpyridin-3-yl)-4-methylisoxazol-5-yl)-3-methylbutanoyl)-N-((S)-1-(4-(4-methylthiazol-5-yl)phenyl)ethyl)pyrrolidine-2-carboxamide] | A (“A” indicates maximum degradation ≥75%)
3 | < 50 | > 100 | < 10 | Cc1ncsc1-c1ccc([C@H](C)NC(=O)[C@@H]2C[C@@H](O)CN2C(=O)[C@@H](c2cc(-c3cnc(N4C[C@@H]5[C@H](C4)[C@H]5c4sc5nnc(-c6ccccc6O)cc5c4C)nc3)no2)C(C)C)cc1 (stereo in doubt) [Compound 40, (2S,4R)-4-hydroxy-1-((R)-2-(3-(2-((1R,5R)-6-(3-(2-hydroxyphenyl)-5-methylthieno[2,3-c]pyridazin-6-yl)-3-azabicyclo[3.1.0]hexan-3-yl)pyrimidin-5-yl)isoxazol-5-yl)-3-methylbutanoyl)-N-((S)-1-(4-(4-methylthiazol-5-yl)phenyl)ethyl)pyrrolidine-2-carboxamide] | A (“A” indicates maximum degradation ≥75%)
4 | < 50 | > 1000 | > 1000 | Cc1ncsc1-c1ccc([C@H](C)NC(=O)[C@@H]2C[C@@H](O)CN2C(=O)[C@@H](c2cc(C3CCN(c4ncc(-c5sc6nnc(-c7ccccc7O)cc6c5C)cn4)CC3)no2)C(C)C)cc1 [Compound 32, (2S,4R)-4-hydroxy-1-((R)-2-(3-(1-(5-(3-(2-hydroxyphenyl)-5-methylthieno[2,3-c]pyridazin-6-yl)pyrimidin-2-yl)piperidin-4-yl)isoxazol-5-yl)-3-methylbutanoyl)-N-((S)-1-(4-(4-methylthiazol-5-yl)phenyl)ethyl)pyrrolidine-2-carboxamide] | C (“C” indicates maximum degradation <50%)
5 | > 50 | > 100 | > 10 | Cc1nc(N2CCC(c3sc4nnc(-c5ccccc5O)cc4c3C)CC2)ccc1-c1noc(C(C(=O)N2C[C@H](O)C[C@H]2C(=O)N[C@@H](C)c2ccc(-c3scnc3C)cc2)C(C)C)c1Cl (stereo in doubt) [Compound 21, (2S,4R)-1-((S)-2-(4-chloro-3-(6-(4-(3-(2-hydroxyphenyl)-5-methylthieno[2,3-c]pyridazin-6-yl)piperidin-1-yl)-2-methylpyridin-3-yl)isoxazol-5-yl)-3-methylbutanoyl)-4-hydroxy-N-((S)-1-(4-(4-methylthiazol-5-yl)phenyl)ethyl)pyrrolidine-2-carboxamide] | A (“A” indicates maximum degradation ≥75%)
6 | < 50 | > 1000 | < 10 | Cc1ncsc1-c1ccc([C@H](C)NC(=O)[C@@H]2C[C@@H](O)CN2C(=O)[C@@H](c2cc(-c3ccc(N4CCC(c5sc6nnc(-c7ccccc7O)cc6c5C)CC4)cc3)no2)C(C)C)cc1 [Compound 26, (2S,4R)-4-hydroxy-1-((R)-2-(3-(4-(4-(3-(2-hydroxyphenyl)-5-methylthieno[2,3-c]pyridazin-6-yl)piperidin-1-yl)phenyl)isoxazol-5-yl)-3-methylbutanoyl)-N-((S)-1-(4-(4-methylthiazol-5-yl)phenyl)ethyl)pyrrolidine-2-carboxamide] | A (“A” indicates maximum degradation ≥75%)
7 | < 50 | > 1000 | < 10 | Cc1ncsc1-c1ccc([C@H](C)NC(=O)[C@@H]2C[C@@H](O)CN2C(=O)[C@@H](c2cc(-c3ccc(N4CCC(c5sc6nnc(-c7ccccc7O)cc6c5C)CC4)cc3F)no2)C(C)C)cc1 [Compound 4, (2S,4R)-1-((R)-2-(3-(2-fluoro-4-(4-(3-(2-hydroxyphenyl)-5-methylthieno[2,3-c]pyridazin-6-yl)piperidin-1-yl)phenyl)isoxazol-5-yl)-3-methylbutanoyl)-4-hydroxy-N-((S)-1-(4-(4-methylthiazol-5-yl)phenyl)ethyl)pyrrolidine-2-carboxamide] | A (“A” indicates maximum degradation ≥75%)
8 | > 50 | > 10 | < 10 | Cc1ncsc1-c1ccc([C@H](C)NC(=O)[C@@H]2C[C@@H](O)CN2C(=O)[C@@H](c2cc(C3CCN(c4cnc(N5CCC(c6sc7nnc(-c8ccccc8O)cc7c6C)CC5)nc4)CC3)no2)C(C)C)cc1 [Compound 100, (2S,4R)-4-hydroxy-1-[(2R)-2-{3-[1-(2-{4-[3-(2-hydroxyphenyl)-5-methylthieno[2,3-c]pyridazin-6-yl]piperidin-1-yl}pyrimidin-5-yl)piperidin-4-yl]-1,2-oxazol-5-yl}-3-methylbutanoyl]-N-[(1S)-1-[4-(4-methyl-1,3-thiazol-5-yl)phenyl]ethyl]pyrrolidine-2-carboxamide] | A (“A” indicates maximum degradation ≥75%)
9 | < 50 | – | > 10 | Cc1cc(N2CC[C@@H](c3sc4nnc(-c5ccccc5O)cc4c3C)C2)ncc1-c1cc([C@H](C(=O)N2C[C@H](O)C[C@H]2C(=O)N[C@@H](C)c2ccc(-c3scnc3C)cc2)C(C)C)on1 [Compound 96, (2S,4R)-4-hydroxy-1-((R)-2-(3-(6-((R)-3-(3-(2-hydroxyphenyl)-5-methylthieno[2,3-c]pyridazin-6-yl)pyrrolidin-1-yl)-4-methylpyridin-3-yl)isoxazol-5-yl)-3-methylbutanoyl)-N-((S)-1-(4-(4-methylthiazol-5-yl)phenyl)ethyl)pyrrolidine-2-carboxamide] | B (“B” indicates maximum degradation ≥50%)
10 | < 50 | – | < 10 | Cc1ncsc1-c1ccc([C@H](C)NC(=O)[C@@H]2C[C@@H](O)CN2C(=O)[C@@H](c2cc(N3CC4(C3)CN(c3cc5cc(-c6ccccc6O)nnc5s3)C4)no2)C(C)C)cc1 [Compound 68, (2S,4R)-4-hydroxy-1-((R)-2-(3-(6-(3-(2-hydroxyphenyl)thieno[2,3-c]pyridazin-6-yl)-2,6-diazaspiro[3.3]heptan-2-yl)isoxazol-5-yl)-3-methylbutanoyl)-N-((S)-1-(4-(4-methylthiazol-5-yl)phenyl)ethyl)pyrrolidine-2-carboxamide] | A (“A” indicates maximum degradation ≥75%)
11 | > 50 | > 10 | < 10 | Cc1ncsc1-c1ccc([C@H](C)NC(=O)[C@@H]2C[C@@H](O)CN2C(=O)[C@@H](c2cc(N3CC[C@@H](c4sc5nnc(-c6ccccc6O)cc5c4C)C3)no2)C(C)C)cc1 [Compound 74, (2S,4R)-4-hydroxy-1-((R)-2-(3-((R)-3-(3-(2-hydroxyphenyl)-5-methylthieno[2,3-c]pyridazin-6-yl)pyrrolidin-1-yl)isoxazol-5-yl)-3-methylbutanoyl)-N-((S)-1-(4-(4-methylthiazol-5-yl)phenyl)ethyl)pyrrolidine-2-carboxamide] | A (“A” indicates maximum degradation ≥75%)
12 | < 50 | > 1000 | < 10 | Cc1cc(N2CCC(c3sc4nnc(-c5ccccc5O)cc4c3C)CC2)ncc1-c1cc([C@H](C(=O)N2C[C@H](O)C[C@H]2C(=O)N[C@@H](C)c2ccc(-c3scnc3C)cc2)C(C)C)on1 [Compound 38, (2S,4R)-4-hydroxy-1-((R)-2-(3-(6-(4-(3-(2-hydroxyphenyl)-5-methylthieno[2,3-c]pyridazin-6-yl)piperidin-1-yl)-4-methylpyridin-3-yl)isoxazol-5-yl)-3-methylbutanoyl)-N-((S)-1-(4-(4-methylthiazol-5-yl)phenyl)ethyl)pyrrolidine-2-carboxamide] | A (“A” indicates maximum degradation ≥75%)
13 | < 50 | > 1000 | > 10 | Cc1ncsc1-c1ccc([C@H](C)NC(=O)[C@@H]2C[C@@H](O)CN2C(=O)[C@@H](c2cc(-c3ccnc(N4CC[C@H](c5sc6nnc(-c7ccccc7O)cc6c5C)C4)n3)no2)C(C)C)cc1 [Compound 8, (2S,4R)-4-hydroxy-1-((R)-2-(3-(2-((S)-3-(3-(2-hydroxyphenyl)-5-methylthieno[2,3-c]pyridazin-6-yl)pyrrolidin-1-yl)pyrimidin-4-yl)isoxazol-5-yl)-3-methylbutanoyl)-N-((S)-1-(4-(4-methylthiazol-5-yl)phenyl)ethyl)pyrrolidine-2-carboxamide] | A (“A” indicates maximum degradation ≥75%)
